From PubChem BioAssay (NCI) come the findings set out here.

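The compound was tested at five concentrations on cells cultured in 96-well plates, with a 48-hour exposure period. TGI: concentration producing complete growth inhibition.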

One test has as its system U251 CNS. The experiment in a line: NCI-60 cell line screen, 48 h.
`CC[C@H]1C=CCC[C@@]2(C[C@@H]3CC[C@@H]4[C@H](C(=O)OCCCCCCCCCCCCCCCC(=O)O)[C@]5(CCC[C@@H](C)O5)NC(=[N+]34)N2)O1` yielded a TGI of 903 nM.

As to `CCOC(=O)c1c2c(n3ccccc13)C(=O)c1ccccc1C2=O`, the TGI is greater than 100000 nM.

The next test concerns CAKI-1 renal. Briefly: NCI-60 cell line screen, 48 h.
Consider `CN(CC1(CO)CCC1)c1cc(Cl)nc(N)n1`, for which the TGI is greater than 100 µM.

For `COc1cc(C=C2C(C)=NN(c3cccc(Cl)c3)C23SCC(=O)N3c2nc3ccccc3s2)ccc1O` (stereo not drawn), the TGI was greater than 96.2 µM.

`CC[C@H]1C=CCC[C@@]2(C[C@@H]3CC[C@@H]4[C@H](C(=O)OCCCCCCCCCCCCCCCC(=O)O)[C@]5(CCC[C@@H](C)O5)NC(=[N+]34)N2)O1` displayed a TGI of 3.47 µM.

With `CCOC(=O)c1c2c(n3ccccc13)C(=O)c1ccccc1C2=O`, the TGI is greater than 100 µM.

The next test relates to DU-145 prostate. The experiment in a line: NCI-60 cell line screen, 48 h.
Regarding `CN(CC1(CO)CCC1)c1cc(Cl)nc(N)n1`, the TGI is greater than 100 µM.

Regarding `COc1cc(C=C2C(C)=NN(c3cccc(Cl)c3)C23SCC(=O)N3c2nc3ccccc3s2)ccc1O` (stereo not drawn), the TGI is greater than 100 µM.

With `CC[C@H]1C=CCC[C@@]2(C[C@@H]3CC[C@@H]4[C@H](C(=O)OCCCCCCCCCCCCCCCC(=O)O)[C@]5(CCC[C@@H](C)O5)NC(=[N+]34)N2)O1`, the TGI is 8 µM.

Compound `CCOC(=O)c1c2c(n3ccccc13)C(=O)c1ccccc1C2=O` registered a TGI greater than 100 µM.

The test system of another test is K-562 leukemia. The experiment in a line: NCI-60 cell line screen, 48 h.
Take `CN(CC1(CO)CCC1)c1cc(Cl)nc(N)n1`: the TGI was greater than 100 µM.

`COc1cc(C=C2C(C)=NN(c3cccc(Cl)c3)C23SCC(=O)N3c2nc3ccccc3s2)ccc1O` (stereo not drawn) displayed a TGI of 37.2 µM.

Regarding `CC[C@H]1C=CCC[C@@]2(C[C@@H]3CC[C@@H]4[C@H](C(=O)OCCCCCCCCCCCCCCCC(=O)O)[C@]5(CCC[C@@H](C)O5)NC(=[N+]34)N2)O1`, the TGI was 5.73 µM.

With `CCOC(=O)c1c2c(n3ccccc13)C(=O)c1ccccc1C2=O`, the TGI is greater than 100 µM.

A further test has as its system HCT-116 colon. The experiment in a line: NCI-60 cell line screen, 48 h.
As for `CN(CC1(CO)CCC1)c1cc(Cl)nc(N)n1`, the TGI is greater than 100 µM.

As to `COc1cc(C=C2C(C)=NN(c3cccc(Cl)c3)C23SCC(=O)N3c2nc3ccccc3s2)ccc1O` (stereo not drawn), the TGI was 65.3 µM.

`CC[C@H]1C=CCC[C@@]2(C[C@@H]3CC[C@@H]4[C@H](C(=O)OCCCCCCCCCCCCCCCC(=O)O)[C@]5(CCC[C@@H](C)O5)NC(=[N+]34)N2)O1` registered a TGI of 2.16 µM.

`CCOC(=O)c1c2c(n3ccccc13)C(=O)c1ccccc1C2=O` returned a TGI greater than 100 µM.

The subject of another test is PC-3 prostate. The experiment in a line: NCI-60 cell line screen, 48 h.
For the compound `CN(CC1(CO)CCC1)c1cc(Cl)nc(N)n1`, the TGI is greater than 100 µM.

For the compound `COc1cc(C=C2C(C)=NN(c3cccc(Cl)c3)C23SCC(=O)N3c2nc3ccccc3s2)ccc1O` (stereo not drawn), the TGI amounted to 58.1 µM.

With `CC[C@H]1C=CCC[C@@]2(C[C@@H]3CC[C@@H]4[C@H](C(=O)OCCCCCCCCCCCCCCCC(=O)O)[C@]5(CCC[C@@H](C)O5)NC(=[N+]34)N2)O1`, the TGI is 1.9 µM.

The compound `CCOC(=O)c1c2c(n3ccccc13)C(=O)c1ccccc1C2=O` registered a TGI greater than 100 µM.

A further test concerns NCI-H460 lung. Briefly: NCI-60 cell line screen, 48 h.
`CN(CC1(CO)CCC1)c1cc(Cl)nc(N)n1` gave a TGI greater than 100 µM.

As to `COc1cc(C=C2C(C)=NN(c3cccc(Cl)c3)C23SCC(=O)N3c2nc3ccccc3s2)ccc1O` (stereo not drawn), the TGI is greater than 100 µM.

Consider `CC[C@H]1C=CCC[C@@]2(C[C@@H]3CC[C@@H]4[C@H](C(=O)OCCCCCCCCCCCCCCCC(=O)O)[C@]5(CCC[C@@H](C)O5)NC(=[N+]34)N2)O1`, for which the TGI is 1.12 µM.

The compound `CCOC(=O)c1c2c(n3ccccc13)C(=O)c1ccccc1C2=O` displayed a TGI of 15.6 µM.

A further test has as its system SNB-19 CNS. The experiment in a line: NCI-60 cell line screen, 48 h.
Take `CN(CC1(CO)CCC1)c1cc(Cl)nc(N)n1`: the TGI was greater than 100 µM.

The compound `COc1cc(C=C2C(C)=NN(c3cccc(Cl)c3)C23SCC(=O)N3c2nc3ccccc3s2)ccc1O` (stereo not drawn) showed a TGI greater than 100 µM.

The compound `CC[C@H]1C=CCC[C@@]2(C[C@@H]3CC[C@@H]4[C@H](C(=O)OCCCCCCCCCCCCCCCC(=O)O)[C@]5(CCC[C@@H](C)O5)NC(=[N+]34)N2)O1` gave a TGI of 9.46 µM.

On to `CCOC(=O)c1c2c(n3ccccc13)C(=O)c1ccccc1C2=O`, for which the TGI is greater than 100 µM.

The subject of the next test is MDA-MB-435. Briefly: NCI-60 cell line screen, 48 h.
In turn, `CN(CC1(CO)CCC1)c1cc(Cl)nc(N)n1` yielded a TGI greater than 100 µM.

`COc1cc(C=C2C(C)=NN(c3cccc(Cl)c3)C23SCC(=O)N3c2nc3ccccc3s2)ccc1O` (stereo not drawn) had a TGI greater than 100 µM.

Compound `CC[C@H]1C=CCC[C@@]2(C[C@@H]3CC[C@@H]4[C@H](C(=O)OCCCCCCCCCCCCCCCC(=O)O)[C@]5(CCC[C@@H](C)O5)NC(=[N+]34)N2)O1` had a TGI of 6.27 µM.

The compound `CCOC(=O)c1c2c(n3ccccc13)C(=O)c1ccccc1C2=O` showed a TGI greater than 100 µM.

The next test relates to A498 renal. Briefly: NCI-60 cell line screen, 48 h.
Take `CN(CC1(CO)CCC1)c1cc(Cl)nc(N)n1`: the TGI was greater than 100 µM.

As to `COc1cc(C=C2C(C)=NN(c3cccc(Cl)c3)C23SCC(=O)N3c2nc3ccccc3s2)ccc1O` (stereo not drawn), the TGI is 66 µM.

For the compound `CC[C@H]1C=CCC[C@@]2(C[C@@H]3CC[C@@H]4[C@H](C(=O)OCCCCCCCCCCCCCCCC(=O)O)[C@]5(CCC[C@@H](C)O5)NC(=[N+]34)N2)O1`, the TGI was 1.23 µM.

Compound `CCOC(=O)c1c2c(n3ccccc13)C(=O)c1ccccc1C2=O` showed a TGI greater than 100 µM.

In the next test the test system is NCI/ADR-RES ovarian. Briefly: NCI-60 cell line screen, 48 h.
`CN(CC1(CO)CCC1)c1cc(Cl)nc(N)n1` came in with a TGI greater than 100 µM.

The compound `COc1cc(C=C2C(C)=NN(c3cccc(Cl)c3)C23SCC(=O)N3c2nc3ccccc3s2)ccc1O` (stereo not drawn) came in with a TGI greater than 96.7 µM.

For the compound `CC[C@H]1C=CCC[C@@]2(C[C@@H]3CC[C@@H]4[C@H](C(=O)OCCCCCCCCCCCCCCCC(=O)O)[C@]5(CCC[C@@H](C)O5)NC(=[N+]34)N2)O1`, the TGI amounted to 14.8 µM.

With `CCOC(=O)c1c2c(n3ccccc13)C(=O)c1ccccc1C2=O`, the TGI is greater than 100 µM.

For a further test, the system named is SF-295 CNS. The experiment in a line: NCI-60 cell line screen, 48 h.
In turn, `CN(CC1(CO)CCC1)c1cc(Cl)nc(N)n1` showed a TGI greater than 100 µM.

In turn, `COc1cc(C=C2C(C)=NN(c3cccc(Cl)c3)C23SCC(=O)N3c2nc3ccccc3s2)ccc1O` (stereo not drawn) showed a TGI greater than 100 µM.

For `CC[C@H]1C=CCC[C@@]2(C[C@@H]3CC[C@@H]4[C@H](C(=O)OCCCCCCCCCCCCCCCC(=O)O)[C@]5(CCC[C@@H](C)O5)NC(=[N+]34)N2)O1`, the TGI came out at 2.09 µM.

Regarding `CCOC(=O)c1c2c(n3ccccc13)C(=O)c1ccccc1C2=O`, the TGI was greater than 100 µM.

Another test deals with MOLT-4 leukemia. Briefly: NCI-60 cell line screen, 48 h.
Consider `CN(CC1(CO)CCC1)c1cc(Cl)nc(N)n1`, for which the TGI was greater than 100 µM.

As for `COc1cc(C=C2C(C)=NN(c3cccc(Cl)c3)C23SCC(=O)N3c2nc3ccccc3s2)ccc1O` (stereo not drawn), the TGI stood at 35.1 µM.

`CC[C@H]1C=CCC[C@@]2(C[C@@H]3CC[C@@H]4[C@H](C(=O)OCCCCCCCCCCCCCCCC(=O)O)[C@]5(CCC[C@@H](C)O5)NC(=[N+]34)N2)O1`: the TGI was 2.84 µM.

Turning to `CCOC(=O)c1c2c(n3ccccc13)C(=O)c1ccccc1C2=O`, the TGI was greater than 100 µM.

For a further test, the system named is UACC-62 melanoma. Briefly: NCI-60 cell line screen, 48 h.
As to `CN(CC1(CO)CCC1)c1cc(Cl)nc(N)n1`, the TGI is greater than 100 µM.

On to `COc1cc(C=C2C(C)=NN(c3cccc(Cl)c3)C23SCC(=O)N3c2nc3ccccc3s2)ccc1O` (stereo not drawn), for which the TGI turned out to be 96.1 µM.

The compound `CC[C@H]1C=CCC[C@@]2(C[C@@H]3CC[C@@H]4[C@H](C(=O)OCCCCCCCCCCCCCCCC(=O)O)[C@]5(CCC[C@@H](C)O5)NC(=[N+]34)N2)O1` came in with a TGI of 0.179 µM.

`CCOC(=O)c1c2c(n3ccccc13)C(=O)c1ccccc1C2=O` gave a TGI greater than 100 µM.

For the next test, the system named is OVCAR-5 ovarian. Briefly: NCI-60 cell line screen, 48 h.
In turn, `CN(CC1(CO)CCC1)c1cc(Cl)nc(N)n1` displayed a TGI greater than 100 µM.

`COc1cc(C=C2C(C)=NN(c3cccc(Cl)c3)C23SCC(=O)N3c2nc3ccccc3s2)ccc1O` (stereo not drawn) gave a TGI greater than 100 µM.

In turn, `CC[C@H]1C=CCC[C@@]2(C[C@@H]3CC[C@@H]4[C@H](C(=O)OCCCCCCCCCCCCCCCC(=O)O)[C@]5(CCC[C@@H](C)O5)NC(=[N+]34)N2)O1` had a TGI of 8.73 µM.

Compound `CCOC(=O)c1c2c(n3ccccc13)C(=O)c1ccccc1C2=O` returned a TGI greater than 100 µM.
